# Assay results published in patent US6525001B1, “Substituted pyrimidine and pyridine herbicides” (Mid-American Commercialization Corporation, priority 1997, dated 2003).
# Assays:
# Format in all cases: in vivo
# [1] = tested on: duck salad (Heteranthera limosa); assay: Test B flood test
# Procedure, shortened: (§1)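 Read-out is a visual response score from 0 (no effect) to 10 (complete control), assigned by comparison with untreated controls. Treatment was applied at the 2-leaf stage, and plants stayed in the greenhouse for twelve to sixteen days before scoring.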
# [2] = tested on: bamyardgrass (Echinochloa crus-galli); assay: Test B flood test
# Procedure, shortened: as §1
# [3] = tested on: smallflower flatsedge (Cyperus difformis); assay: Test B flood test
# Procedure, shortened: as §1
# rice (Oryza sativa) = assay: Test B flood test
# Procedure, shortened: as §1
# [4] = tested on: cocklebur (Xanthium strumarium); assay: Test B pre-/postemergence; set-up: key: 0 is no effect; 10 is complete control; details: for Plant response rating, Cocklebur: Postemergence
# Procedure, shortened: (§2)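 Compounds in a surfactant-containing, non-phytotoxic solvent blend are applied to freshly planted seed (preemergence) and, concurrently, to seedlings of 2 to 18 cm at 1–4 leaves (postemergence). Plants stay in the greenhouse twelve to sixteen days and are then scored visually from 0 (no effect) to 10 (complete control).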
# rape (Brassica napus) = assay: Test B pre-/postemergence; set-up: key: 0 is no effect; 10 is complete control
# Procedure, shortened: as §2
# [5] = tested on: velvetleaf (Abutilon theophrasti); assay: Test B pre-/postemergence; set-up: key: 0 is no effect; 10 is complete control
# Procedure, shortened: as §2
# [6] = tested on: momingglory (Ipomoea hederacea); assay: Test B pre-/postemergence; set-up: key: 0 is no effect; 10 is complete control
# Procedure, shortened: as §2
# [7] = tested on: pigweed (Amaranthus retroflexus); assay: Test B pre-/postemergence; set-up: key: 0 is no effect; 10 is complete control
# Procedure, shortened: as §2
# corn (Zea mays) = assay: Test B pre-/postemergence; set-up: key: 0 is no effect; 10 is complete control
# Procedure, shortened: as §2
# [8] = tested on: wheat (Triticum aestivum); assay: Test B pre-/postemergence; set-up: key: 0 is no effect; 10 is complete control
# Procedure, shortened: as §2
# [9] = tested on: sugar beet (Beta vulgaris); assay: Test B pre-/postemergence; set-up: key: 0 is no effect; 10 is complete control
# Procedure, shortened: as §2
# [10] = tested on: giant foxtail (Setaria faberii); assay: Test B pre-/postemergence; set-up: key: 0 is no effect; 10 is complete control
# Procedure, shortened: as §2
# [11] = tested on: broadleaf signalgrass (Brachiaria decumbens); assay: Test B pre-/postemergence; set-up: key: 0 is no effect; 10 is complete control
# Procedure, shortened: as §2
# [12] = tested on: bedstraw (Galium aparine); assay: Test B pre-/postemergence; set-up: key: 0 is no effect; 10 is complete control
# Procedure, shortened: as §2
# [13] = Rate 62 g/ha, Postemergence (flood test)
# [14] = Rate 125 g/ha, Postemergence, flood test
# [15] = Rate 250 g/ha, Postemergence (flood test species)
smiles,measurement,setting,value
Cc1cnc(-c2ccc(C(F)(F)F)cc2)nc1Cc1cccc(OC(F)(F)F)c1 [Compound 15],"Plant response rating, Ducksalad",[1]; [13],6
same,"Plant response rating, Ducksalad",[1]; [14],6
same,"Plant response rating, Ducksalad",[1]; [15],7
same,"Plant response rating, Barnyardgrass",[2]; [13],6
same,"Plant response rating, Barnyardgrass",[2]; [14],8
same,"Plant response rating, Barnyardgrass",[2]; [15],9
same,"Plant response rating, S. Flatsedge",[3]; [13],7
same,"Plant response rating, S. Flatsedge",[3]; [14],8
same,"Plant response rating, S. Flatsedge",[3]; [15],9
same,"Plant response rating, Rice",rice (Oryza sativa); [13],6
same,"Plant response rating, Rice",rice (Oryza sativa); [14],7
same,"Plant response rating, Rice",rice (Oryza sativa); [15],7
same,"Plant response rating, Cocklebur",[4]; Rate 62 g/ha,9
same,"Plant response rating, Cocklebur",[4]; Rate 125 g/ha,9
same,Cocklebur plant response rating,"[4]; Rate 125 g/ha, Preemergence",1
same,"Plant response rating, Cocklebur",[4]; Rate 250 g/ha,10
same,"Plant response rating, Rape","rape (Brassica napus); Rate 62 g/ha, Postemergence",9
same,Rape plant response rating,"rape (Brassica napus); Rate 62 g/ha, Preemergence",6
same,"Plant response rating, Rape","rape (Brassica napus); Rate 125 g/ha, Postemergence",9
same,Rape plant response rating,"rape (Brassica napus); Rate 125 g/ha, Preemergence",9
same,"Plant response rating, Rape","rape (Brassica napus); Rate 250 g/ha, Postemergence",9
same,"Plant response rating, Rape","rape (Brassica napus); Rate 250 g/ha, Preemergence",9
same,"Plant response rating, Velvetleaf","[5]; Rate 62 g/ha, Postemergence",5
same,Velvetleaf plant response rating,"[5]; Rate 62 g/ha, Preemergence",4
same,"Plant response rating, Velvetleaf","[5]; Rate 125 g/ha, Postemergence",8
same,Velvetleaf plant response rating,"[5]; Rate 125 g/ha, Preemergence",7
same,"Plant response rating, Velvetleaf","[5]; Rate 250 g/ha, Postemergence",8
same,"Plant response rating, Velvetleaf","[5]; Rate 250 g/ha, Preemergence",7
same,"Plant response rating, Morningglory","[6]; Rate 62 g/ha, Postemergence",8
same,Morningglory plant response rating,"[6]; Rate 62 g/ha, Preemergence",4
same,"Plant response rating, Morningglory","[6]; Rate 125 g/ha, Postemergence",8
same,Morningglory plant response rating,"[6]; Rate 125 g/ha, Preemergence",7
same,"Plant response rating, Morningglory","[6]; Rate 250 g/ha, Postemergence",9
same,"Plant response rating, Morningglory","[6]; Rate 250 g/ha, Preemergence",9
same,"Plant response rating, Redroot pigweed","[7]; Rate 62 g/ha, Postemergence",9
same,Redroot pigweed plant response rating,"[7]; Rate 62 g/ha, Preemergence",6
same,"Plant response rating, Redroot pigweed","[7]; Rate 125 g/ha, Postemergence",9
same,Redroot pigweed plant response rating,"[7]; Rate 125 g/ha, Preemergence",10
same,"Plant response rating, Redroot pigweed","[7]; Rate 250 g/ha, Postemergence",9
same,"Plant response rating, Redroot pigweed","[7]; Rate 250 g/ha, Preemergence",10
same,"Plant response rating, Corn","corn (Zea mays); Rate 62 g/ha, Postemergence",3
same,Corn plant response rating,"corn (Zea mays); Rate 62 g/ha, Preemergence",1
same,"Plant response rating, Corn","corn (Zea mays); Rate 125 g/ha, Postemergence",4
same,Corn plant response rating,"corn (Zea mays); Rate 125 g/ha, Preemergence",1
same,"Plant response rating, Corn","corn (Zea mays); Rate 250 g/ha, Postemergence",5
same,"Plant response rating, Corn","corn (Zea mays); Rate 250 g/ha, Preemergence",2
same,"Plant response rating, Wheat","[8]; Rate 62 g/ha, Postemergence",4
same,Wheat plant response rating,"[8]; Rate 62 g/ha, Preemergence",2
same,"Plant response rating, Wheat","[8]; Rate 125 g/ha, Postemergence",4
same,Wheat plant response rating,"[8]; Rate 125 g/ha, Preemergence",4
same,"Plant response rating, Wheat","[8]; Rate 250 g/ha, Postemergence",6
same,"Plant response rating, Wheat","[8]; Rate 250 g/ha, Preemergence",7
same,"Plant response rating, Sugarbeets","[9]; Rate 62 g/ha, Postemergence",9
same,Sugarbeets plant response rating,"[9]; Rate 62 g/ha, Preemergence",10
same,"Plant response rating, Sugarbeets","[9]; Rate 125 g/ha, Postemergence",9
same,Sugarbeets plant response rating,"[9]; Rate 125 g/ha, Preemergence",10
same,"Plant response rating, Sugarbeets","[9]; Rate 250 g/ha, Postemergence",10
same,"Plant response rating, Sugarbeets","[9]; Rate 250 g/ha, Preemergence",10
same,"Plant response rating, Giant foxtail","[10]; Rate 62 g/ha, Postemergence",7
same,Giant foxtail plant response rating,"[10]; Rate 62 g/ha, Preemergence",10
same,"Plant response rating, Giant foxtail","[10]; Rate 125 g/ha, Postemergence",7
same,Giant foxtail plant response rating,"[10]; Rate 125 g/ha, Preemergence",10
same,"Plant response rating, Giant foxtail","[10]; Rate 250 g/ha, Postemergence",8
same,"Plant response rating, Giant foxtail","[10]; Rate 250 g/ha, Preemergence",10
same,"Plant response rating, B. signalgrass","[11]; Rate 62 g/ha, Postemergence",4
same,B. signalgrass plant response rating,"[11]; Rate 62 g/ha, Preemergence",9
same,"Plant response rating, B. signalgrass","[11]; Rate 125 g/ha, Postemergence",4
same,B. signalgrass plant response rating,"[11]; Rate 125 g/ha, Preemergence",9
same,"Plant response rating, B. signalgrass","[11]; Rate 250 g/ha, Postemergence",8
same,"Plant response rating, B. signalgrass","[11]; Rate 250 g/ha, Preemergence",9
same,"Plant response rating, Bedstraw","[12]; Rate 62 g/ha, Postemergence",9
same,Bedstraw plant response rating,"[12]; Rate 62 g/ha, Preemergence",6
same,"Plant response rating, Bedstraw","[12]; Rate 125 g/ha, Postemergence",9
same,Bedstraw plant response rating,"[12]; Rate 125 g/ha, Preemergence",8
same,"Plant response rating, Bedstraw","[12]; Rate 250 g/ha, Postemergence",9
same,"Plant response rating, Bedstraw","[12]; Rate 250 g/ha, Preemergence",8
